Assay results reported in paper PMC3670040, “Structure of Lipid Kinase p110β/p85β Elucidates an Unusual SH2-Domain-Mediated Inhibitory Mechanism” (Molecular Cell, 2011).

Columns and labels:
PKB = PKB phosphorylation in transfected HEK cells (Western blot); type: cell-based, human
Experimental: Figure 4 cSH2 Is Important for p110β Inhibition In Vitro and in Cells (A) Kinase activity of human p110β and icSH2 wild-type constructs from three human regulatory subunits (p85α, p85β, and p55γ) in the absence and presence of 10 μM PDGFR pY2 (y axis as in Figure 1B). EC50s for wild-type and icSH2 tyrosine mutants, in the absence and presence of 10 μM PDGF pY2, are shown. (B) Western blots of HEK cells transiently expressing wild-type and mutant human p110β/p85α. The membrane was probed with antibodies against PKB, pPKB (pSer473), myc (p110β), FLAG (p85α), and actin. Bar graphs show mean ± SEM (n = 3) of PKB phosphorylation level normalized to wild-type p110β/p85α (WT). The position of the three mutations is mapped on the p110β/p85β structure. TEXT PRINTED IN THE PICTURE: (A) p110β/p85α-ic: EC50 (nM): 3 | (A) p110β/p85α-ic+pY2: EC50 (nM): 0.3 | (A) p110β/p85β-ic: EC50 (nM): 1.2 | (A) p110β/p85β-ic+pY2: EC50 (nM): 0.3 | (A) p110β/p55γ-ic: EC50 (nM): 1.5 | (A) p110β/p55γ-ic+pY2: EC50 (nM): 0.3 | (A) p110β/p85α-ic-Y685A: EC50 (nM): 0.3 | (A) p110β/p85α-ic-Y685A+pY2: EC50 (nM): 0.3 | (A) p110β/p85β-ic-Y683A: EC50 (nM): 0.4 | (A) p110β/p85β-ic-Y683A+pY2: EC50 (nM): 0.3 | (A) p110β/p55γ-ic-Y419A: EC50 (nM): 0.2 | (A) p110β/p55γ-ic-Y419A+pY2: EC50 (nM): 0.2 […]
Figure S4, Related to Figure 4. Tyr-Mutation in cSH2 Activates PI3K Downstream […]
(A) Western blot of HEK cells over-expressing wild-type and mutant human p110β/p85α complexes. Protein kinase B (PKB) phosphorylation (pPKB) levels at residues Ser473 and Thr308 were quantified and normalized WT p110β/p85α (WT).
(B) Quantification of PtdIns(3,4,5)P3 levels in HEK cells over-expressing wild-type and mutant human p110β/p85α complexes. Phospholipids were extracted from cells and PtdIns(3,4,5)P3 and PtdIns(4,5)P2 levels were quantified by mass spectrometry.
PtdIns(3,4,5)P3 / […] for each construct for two separate experiments measured in duplicates. Error bars indicate SEM. […]
The PIP3 lipids produced in PI3K in vitro assays as described above were also measured by a mass-spectrometry based assay (Clark et al.). […]

p110β/p85β-nic = experiment: ATPase activity (ADP formation) in the absence of lipid substrate, Transcreener; type: biochemical, mouse; details: absence of lipid substrate; 75 nM protein, 100 μM ATP; 5 μM GDC0941 or D913N mutation; Figure S3B
Experimental: (§1) Figure 1 Inhibition of p110β by p85-Type Regulatory Subunits and Activation of the Complexes by RTK Phosphopeptide (A) Domain organization of p110β and the regulatory subunits p85α, p85β, and p55γ. The color scheme for the domains is used for all figures, unless otherwise stated. […] The inhibition is released upon addition of the 10 μM PDGFR pY2. […] The y axis is expressed as a change in fluorescence polarization (ΔmP), which is obtained by subtracting the observed polarization for the construct at a given enzyme concentration from the maximum fluorescence polarization for that construct. The plateau in these assays arises due to the competitive nature of the ADP detection system, based on displacement of ADP-Alexa 633 tracer from the ADP^2-antibody by ADP generated during the PI3K assay (see Supplemental Experimental Procedures). All measurements were done in triplicates, and the error bars indicate the standard error of the mean (SEM). […]
The lipid kinase activity was determined using the Transcreener ADP2 FP Assay (BellBrook Labs, Madison, WI) according to manufacturer‟s specifications. This non-radioactive assay measures activity by quantitating the amount of ADP formed. The ADP formed by PI3K competes with fluorescent ADP tracer for binding to an anti-ADP antibody, thereby decreasing fluorescence polarization. […]

p110β = experiment: Transcreener ADP formation (fluorescence polarization), diC8-PIP2/POPS liposomes, mouse p110β complexes; type: biochemical; details: absence of pY2; ADP formation; Figures 3A, 3B
Experimental: as §1
Figure 3 Mutation Y677A in p85β-cSH2 Releases Inhibitory Effect on p110β (A) Kinase activity (ADP formation) of p110β in a complex with p85β-icSH2-Y677A (Y677A-ic) compared to the wild-type complex (ic) in the absence and presence of 10 μM PDGFR pY2 (ADP formation on the y axis expressed as in Figure 1B). […]
The lipid kinase activity was determined using the Transcreener ADP2 FP Assay (BellBrook Labs, Madison, WI) according to manufacturer‟s specifications. This non-radioactive assay measures activity by quantitating the amount of ADP formed. The ADP formed by PI3K competes with fluorescent ADP tracer for binding to an anti-ADP antibody, thereby decreasing fluorescence polarization. Because of the competitive nature of this assay, the change in fluorescence polarization signal is not a linear function of enzyme activity, and a convenient measure of enzyme activity is the EC50, or the concentration of enzyme necessary to give half-maximal inhibition of labeled ADP binding to the antibody, for a given concentration of substrate and a fixed time of reaction at initial rate. […]

p85α-Y685A: full-length human p85α-Y685A cotransfected with human wild-type p110β
increase in PKB phosphorylation relative to wild-type heterodimer (PKB; HEK293T cells cotransfected with human p110β and p85α mutant, pSer473 mean n = 3, Figures 4B and S4A): 2 fold

CS(=O)(=O)N1CCN(Cc2cc3nc(-c4cccc5[nH]ncc45)nc(N4CCOCC4)c3s2)CC1 [GDC0941, 2-(1H-indazol-4-yl)-6-(4-methanesulfonyl-piperazin-1-ylmethyl)-4-morpholin-4-yl-thieno[3,2-d]pyrimidine]
inhibition of ATPase activity (p110β/p85β-nic): fully inhibited

p110β/p85α-N564D: heterodimer carrying somatic p85α mutation N564D
phosphorylation of PKB Ser473 (PKB; HEK cells, Figure 4B, n = 3): increase in phosphorylation
phosphorylation of PKB Thr308 (PKB; HEK cells, Figure S4A): increase in phosphorylation

nicSH2-Y677A: p110β complex with regulatory construct containing wild-type nSH2 but mutant cSH2-Y677A
basal activity versus wild-type complex (p110β): basal activity higher than the wild-type
